Where two headings read alike, the source gives them in different places.
Legend:
[1] = molecular target: T1, hM2R (Homo sapiens, UniProt P08172); assay: hM2R radioligand binding ([3H]NMS, CHO cell membranes)
T1 construct: host or cells: CHO cells, stably transfected; crude membranes
T1 sequence (P08172 1-466): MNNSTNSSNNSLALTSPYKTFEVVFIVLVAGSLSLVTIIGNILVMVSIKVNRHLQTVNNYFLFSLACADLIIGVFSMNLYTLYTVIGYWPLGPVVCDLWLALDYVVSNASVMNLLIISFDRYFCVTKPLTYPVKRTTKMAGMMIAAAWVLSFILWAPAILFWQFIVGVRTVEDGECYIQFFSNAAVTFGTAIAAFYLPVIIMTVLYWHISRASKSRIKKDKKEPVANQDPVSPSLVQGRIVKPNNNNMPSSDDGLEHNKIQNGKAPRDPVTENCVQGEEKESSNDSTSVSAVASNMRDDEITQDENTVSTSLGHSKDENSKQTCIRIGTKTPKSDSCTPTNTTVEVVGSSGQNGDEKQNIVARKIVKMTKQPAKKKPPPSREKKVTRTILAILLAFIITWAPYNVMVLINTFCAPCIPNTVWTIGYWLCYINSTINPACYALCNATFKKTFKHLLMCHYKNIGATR
Method: (§1) To clearly explain the obtained outcome, we engaged the radioligand binding experiment. The hM1–hM5 radioligand binding experiments were performed in the membrane fractions of Chinese hamster ovary cells (CHO) stably expressing human variants of muscarinic receptors. N-[^3H]Methylscopolamine was used as the radiolabeled ligand.[39] Three compounds were selected from ex vivo screening on guinea pig ileum. […] This compound is also not completely selective for the remaining muscarinic receptor subtypes with −log Ki values over 6. […] It is also a potent muscarinic M1R antagonist, and the M1R/M2R selectivity ratio is <10. It is worth noting that such nonspecific anticholinergics are often associated with neuropsychiatric and cognitive disturbances and that nonselective muscarinic M1R/M2R antagonists, such as scopolamine, can produce cognitive deficits. Further structural modifications of ADS10227 should be used to increase selectivity toward the M2R, as these may present fewer potential side effects associated with the activation of the phospholipase C signaling pathway.
The culture was derived from CHO cells stably transfected with the genes of human variants of muscarinic receptors. These were purchased from Missouri S&T cDNA Resource Center (Rolla, MO, USA). Cell cultures and crude membranes were prepared as described previously.[45] The cells were grown to confluence in 75 cm^2 flasks in Dulbecco’s modified Eagle’s medium (DMEM) supplemented with 10% fetal bovine serum, and 2 million cells were subcultured to 100 mm Petri dishes. The medium was supplemented with 5 mM butyrate for the last 24 h of cultivation to increase receptor expression. Cells were detached by mild trypsinization on day 5 after subculture. Detached cells were washed twice in 50 mL of phosphate-buffered saline and 3 min centrifugation at 250g. […]
(§2) All radioligand binding experiments were optimized and carried out according to general guidelines.[39] […] N-Methylscopolamine binding was measured directly in saturation experiments using six concentrations (30–1000 pM) of [^3H]NMS during incubation for 1 h (M2R), 3 h (M1R, M3R, and M4R), or 5 h (M5R). For calculations of the equilibrium dissociation constant (KD), concentrations of free [^3H]NMS were calculated by subtraction of bound radioactivity from total radioactivity in the sample and fitting eq 1 (Experimental Data analysis section). The binding of the tested ligands was determined in competition experiments with 100 pM [^3H]NMS. […] Nonspecific binding was determined in the presence of 1 μM unlabeled atropine. […]

[2] = molecular target: T2, hM3R (Homo sapiens, UniProt P20309); assay: hM3R radioligand binding ([3H]NMS, CHO cell membranes)
T2 construct: host or cells: CHO cells, stably transfected; crude membranes
Method: as §1
(§3) The culture was derived from CHO cells stably transfected with the genes of human variants of muscarinic receptors. These were purchased from Missouri S&T cDNA Resource Center (Rolla, MO, USA). Cell cultures and crude membranes were prepared as described previously.[45] […]
as §2

[3] = molecular target: T3, hM4R (Homo sapiens, UniProt P08173); assay: hM4R radioligand binding ([3H]NMS, CHO cell membranes)
T3 construct: host or cells: CHO cells, stably transfected; crude membranes
T3 sequence (P08173 1-479): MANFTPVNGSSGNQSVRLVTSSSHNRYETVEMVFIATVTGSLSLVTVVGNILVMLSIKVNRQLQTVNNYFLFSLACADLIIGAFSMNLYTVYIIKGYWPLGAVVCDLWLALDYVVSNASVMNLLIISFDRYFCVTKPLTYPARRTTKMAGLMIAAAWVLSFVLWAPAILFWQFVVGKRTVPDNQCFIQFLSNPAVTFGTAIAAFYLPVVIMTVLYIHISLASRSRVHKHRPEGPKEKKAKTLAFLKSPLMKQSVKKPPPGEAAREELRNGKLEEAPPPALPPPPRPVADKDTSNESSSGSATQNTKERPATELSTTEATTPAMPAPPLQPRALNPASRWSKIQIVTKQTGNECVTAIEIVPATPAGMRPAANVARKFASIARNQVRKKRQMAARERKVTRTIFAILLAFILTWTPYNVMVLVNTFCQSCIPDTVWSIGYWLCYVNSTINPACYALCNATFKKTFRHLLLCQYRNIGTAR
Method: as §1, §3, §2

[4] = read-out: hM3R -log(Ki) ± sem (converted)

T2 sequence (P20309 whole entry): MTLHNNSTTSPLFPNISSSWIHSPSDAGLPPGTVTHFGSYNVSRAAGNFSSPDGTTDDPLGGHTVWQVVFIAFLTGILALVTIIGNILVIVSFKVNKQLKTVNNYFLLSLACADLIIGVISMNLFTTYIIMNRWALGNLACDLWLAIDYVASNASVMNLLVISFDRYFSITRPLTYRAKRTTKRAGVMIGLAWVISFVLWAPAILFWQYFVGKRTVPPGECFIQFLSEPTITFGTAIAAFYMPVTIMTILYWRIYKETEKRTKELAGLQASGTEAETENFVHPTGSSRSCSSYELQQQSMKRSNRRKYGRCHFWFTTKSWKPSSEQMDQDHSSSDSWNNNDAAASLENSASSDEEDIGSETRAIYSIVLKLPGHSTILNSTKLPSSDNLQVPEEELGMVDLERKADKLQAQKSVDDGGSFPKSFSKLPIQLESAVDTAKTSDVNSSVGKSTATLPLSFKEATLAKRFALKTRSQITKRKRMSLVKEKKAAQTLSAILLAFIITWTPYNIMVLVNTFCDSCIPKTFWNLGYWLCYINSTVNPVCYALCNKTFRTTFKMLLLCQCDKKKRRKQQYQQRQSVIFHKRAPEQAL

Row | SMILES | Ki [1] [nM] | Ki ([2]; hM3R -log(Ki) ± sem) [nM] | Ki [3] [nM] | Ki ([1]; [3H]NMS, CHO membranes, read-out: hM2R -log(Ki) ± sem (converted)) [nM] | M1R/M2R selectivity ratio ([1]; from hM1R and hM2R binding) | Ki [2, 4] [nM] | Ki ([3]; [3H]NMS, CHO membranes, read-out: affinity to hM4R (Ki)) [nM] | Ki ([1]; [3H]NMS, CHO membranes, read-out: affinity to hM2R (Ki)) [nM] | Ki ([3]; [3H]NMS, CHO membranes, read-out: hM4R -log(Ki) ± sem (converted)) [nM]
1 | N=C(N)N(CCCCN1CCN(CCCCCCCOc2ccccc2)CC1)Cc1ccccc1 [ADS1017] | 37.2 | 347 | 68 | – | – | – | – | – | –
2 | N=C(N)N(CCCCN1CCN(C[C@H]2CC[C@@H](COc3ccccc3)CC2)CC1)Cc1ccccc1 [ADS10227, 1-{4-{4-{[4-(phenoxymethyl)cyclohexyl]methyl}piperazin-1-yl}but-1-yl}-1-(benzyl)guanidine] | – | – | – | 2.82 | < 10 | 51.3 | 5.1 | – | –
3 | [H]/N=C(/N)N(CCCCN1CCN(CC2CCC(COc3ccccc3)CC2)CC1)Cc1ccc(C(F)(F)F)cc1 (stereo not shown) [ADS10239] | – | – | – | – | – | 123 | – | 52 | 15.1

Source: PMC8291587, “Guanidine Derivatives: How Simple Structural Modification of Histamine H3R Antagonists Has Led to the Discovery of Potent Muscarinic M2R/M4R Antagonists” (ACS Chemical Neuroscience, 2021)
